Active and inactive are the calls of the source. No rule for the calls is given here.

Drawing on PubChem BioAssay AID1259407 (Chemical Carcinogenesis Research Information System (CCRIS), 2018), this text covers mutagenic call for 15 compounds.

The data set deals with CCRIS mutagenicity, Ames/micronucleus/aberration tests. Briefly: CCRIS mutagenicity studies.
The mark [1] stands for this setting: Test System: AMES SALMONELLA TYPHIMURIUM, Strain/Indicator: TA98, Metabolic Activation: NONE, Method: STANDARD PLATE.
Where [2] appears, read: Test System: AMES SALMONELLA TYPHIMURIUM, Strain/Indicator: TA100, Metabolic Activation: NONE, Method: STANDARD PLATE.
The mark [3] stands for this setting: Test System: AMES SALMONELLA TYPHIMURIUM, Strain/Indicator: TA1537, Metabolic Activation: NONE, Method: STANDARD PLATE.
The mark [4] stands for this setting: Test System: AMES SALMONELLA TYPHIMURIUM, Strain/Indicator: TA98, Metabolic Activation: NONE, Method: PREINCUBATION

For `Nc1ccc2c([nH]c3ccccc32)c1[N+](=O)[O-]`, the mutagenic call reads like this: under setting [1], “active; positive”; (Test System: AMES SALMONELLA TYPHIMURIUM, Strain/Indicator: TA98, Metabolic Activation: RAT, LIVER, S-9, PHENOBARBITAL, Method: STANDARD PLATE) “active; positive”; under setting [2], “active; positive”; (Test System: AMES SALMONELLA TYPHIMURIUM, Strain/Indicator: TA100, Metabolic Activation: RAT, LIVER, S-9, PHENOBARBITAL, Method: STANDARD PLATE) “active; positive”; under setting [3], “active; positive”; (Test System: AMES SALMONELLA TYPHIMURIUM, Strain/Indicator: TA1537, Metabolic Activation: RAT, LIVER, S-9, PHENOBARBITAL, Method: STANDARD PLATE) “active; positive”. The mutagenic call is “active; positive” (Test System: AMES SALMONELLA TYPHIMURIUM, Strain/Indicator: TA1538, Metabolic Activation: NONE, Method: STANDARD PLATE); “active; positive” (Test System: AMES SALMONELLA TYPHIMURIUM, Strain/Indicator: TA1538, Metabolic Activation: RAT, LIVER, S-9, PHENOBARBITAL, Method: STANDARD PLATE); “inactive; negative” (Test System: AMES SALMONELLA TYPHIMURIUM, Strain/Indicator: TA1977, Metabolic Activation: NONE, Method: STANDARD PLATE); “active; positive” (Test System: AMES SALMONELLA TYPHIMURIUM, Strain/Indicator: TA1977, Metabolic Activation: RAT, LIVER, S-9, PHENOBARBITAL, Method: STANDARD PLATE).

`COC(C)=O`: the mutagenic call (Test System: AMES SALMONELLA TYPHIMURIUM, Strain/Indicator: TA97, Metabolic Activation: HAMSTER, LIVER, S-9, AROCLOR 1254 (10 OR 30%), Method: PREINCUBATION) is “inactive; negative”; the mutagenic call (Test System: AMES SALMONELLA TYPHIMURIUM, Strain/Indicator: TA97, Metabolic Activation: NONE, Method: PREINCUBATION) is “inactive; negative”; the mutagenic call (Test System: AMES SALMONELLA TYPHIMURIUM, Strain/Indicator: TA97, Metabolic Activation: RAT, LIVER, S-9, AROCLOR 1254 (10 OR 30%), Method: PREINCUBATION) is “inactive; negative”; the mutagenic call (Test System: AMES SALMONELLA TYPHIMURIUM, Strain/Indicator: TA98, Metabolic Activation: HAMSTER, LIVER, S-9, AROCLOR 1254 (10 OR 30%), Method: PREINCUBATION) is “inactive; negative”; the mutagenic call under setting [4] was “inactive; negative”; the mutagenic call (Test System: AMES SALMONELLA TYPHIMURIUM, Strain/Indicator: TA98, Metabolic Activation: RAT, LIVER, S-9, AROCLOR 1254 (10 OR 30%), Method: PREINCUBATION) is “inactive; negative”. Besides, the mutagenic call reads like this: (Test System: AMES SALMONELLA TYPHIMURIUM, Strain/Indicator: TA100, Metabolic Activation: HAMSTER, LIVER, S-9, AROCLOR 1254 (10 OR 30%), Method: PREINCUBATION) “inactive; negative”; (Test System: AMES SALMONELLA TYPHIMURIUM, Strain/Indicator: TA100, Metabolic Activation: NONE, Method: PREINCUBATION) “inactive; negative”; (Test System: AMES SALMONELLA TYPHIMURIUM, Strain/Indicator: TA100, Metabolic Activation: RAT, LIVER, S-9, AROCLOR 1254 (10 OR 30%), Method: PREINCUBATION) “inactive; negative”; (Test System: AMES SALMONELLA TYPHIMURIUM, Strain/Indicator: TA1535, Metabolic Activation: HAMSTER, LIVER, S-9, AROCLOR 1254 (10 OR 30%), Method: PREINCUBATION) “inactive; negative”; (Test System: AMES SALMONELLA TYPHIMURIUM, Strain/Indicator: TA1535, Metabolic Activation: NONE, Method: PREINCUBATION) “inactive; negative”; (Test System: AMES SALMONELLA TYPHIMURIUM, Strain/Indicator: TA1535, Metabolic Activation: RAT, LIVER, S-9, AROCLOR 1254 (10 OR 30%), Method: PREINCUBATION) “inactive; negative”. Besides, the mutagenic call reads like this: (Test System: AMES SALMONELLA TYPHIMURIUM, Strain/Indicator: TA1537, Metabolic Activation: HAMSTER, LIVER, S-9, AROCLOR 1254 (30%), Method: PREINCUBATION) “inactive; negative”; (Test System: AMES SALMONELLA TYPHIMURIUM, Strain/Indicator: TA1537, Metabolic Activation: NONE, Method: PREINCUBATION) “inactive; negative”; (Test System: AMES SALMONELLA TYPHIMURIUM, Strain/Indicator: TA1537, Metabolic Activation: RAT, LIVER, S-9, AROCLOR 1254 (30%), Method: PREINCUBATION) “inactive; negative”.

Consider `Cc1ccc2cc([N+](=O)[O-])ccc2c1`, for which, under setting [4], the mutagenic call was “active; positive”.

Regarding `O=CN(O)c1ccc(Oc2ccccc2)cc1`, the mutagenic call by setting is: under setting [2], “inactive; negative”; (Test System: AMES SALMONELLA TYPHIMURIUM, Strain/Indicator: TA100, Metabolic Activation: RAT, LIVER, S-9, KANECLOR 500, Method: STANDARD PLATE) “active; positive”.

For the compound `NC(Cc1c[nH]c2ccccc12)C(=O)O` (stereo not drawn), under “Test System: AMES SALMONELLA TYPHIMURIUM, Strain/Indicator: TA98, Metabolic Activation: RAT LIVER S-9, CHLOROPHENE, Method: STANDARD PLATE (COMPOUND HEATED AT 250 DEGREES CELSIUS FOR 20 MIN)”, the mutagenic call was “inactive; negative”.

On to `O=C(Nc1cccc(F)c1)c1csc([N+](=O)[O-])c1`, for which the mutagenic call reads like this: under setting [1], “active; positive”; under setting [2], “active; positive”.

With `CN(C)C(=S)SNCCNSC(=S)N(C)C`, the mutagenic call was “active; positive” under setting [2] and “inactive; negative” (Test System: AMES SALMONELLA TYPHIMURIUM, Strain/Indicator: TA100, Metabolic Activation: S-9 MIX, Method: STANDARD PLATE).

Turning to `OCc1ccc(C(F)(F)F)cc1`, under setting [2], the mutagenic call is “inactive; negative”.

For `C1CCC2=NCCCN2CC1`, the mutagenic call (Test System: Mouse lymphoma, Strain/Indicator: L5178Y (tk+/tk-), Metabolic Activation: None, Method: Suspension/plate) is “inactive; negative” and the mutagenic call (Test System: Mouse lymphoma, Strain/Indicator: L5178Y (tk+/tk-), Metabolic Activation: Rat, Liver, S-9, Aroclor 1254, Method: Suspension/plate) was “inactive; negative”.

`CSC(=O)c1cccc2nnsc12`: the mutagenic call (End Point: In vivo micronucleus, Test System: Femoral bone marrow polychromatic erythrocytes, Species: Mouse, Strain/Sex: Female, Route: Gavage) is “inactive; negative; strain is not given by dpr reviewer” and the mutagenic call (End Point: In vivo micronucleus, Test System: Femoral bone marrow polychromatic erythrocytes, Species: Mouse, Strain/Sex: Male, Route: Gavage) was “inactive; negative; strain is not given by dpr reviewer”.

Turning to `O=c1oc2cccc3ccc4c5ccccc5cc1c4c32`, the mutagenic call reads like this: under setting [1], “inactive; negative”; (Test System: AMES SALMONELLA TYPHIMURIUM, Strain/Indicator: TA98, Metabolic Activation: RAT, LIVER, S-9, AROCLOR 1254, Method: STANDARD PLATE) “active; positive”; (Test System: AMES SALMONELLA TYPHIMURIUM, Strain/Indicator: TA100, Metabolic Activation: RAT, LIVER, S-9, AROCLOR 1254, Method: STANDARD PLATE) “active; positive”.

As for `CCCCOC(N)=O`, the mutagenic call (Test System: E. COLI, Strain/Indicator: WP2 UVRA, Metabolic Activation: NONE, Method: FLUCTUATION TEST) is “inactive; negative”.

On to `c1ccc2c(c1)-c1ccccc1C1NC21` (stereo not drawn), for which the mutagenic call by setting is: under setting [1], “active; positive”; under setting [3], “active; positive”; (Test System: CHINESE HAMSTER V-79, Strain/Indicator: V-79/6-THIOGUANINE, Metabolic Activation: NONE, Method: STANDARD PLATE) “active; positive”.

As to `CC(=O)Nc1ccc2c(ccc3ccccc32)c1`, the mutagenic call reads like this: (Test System: CHINESE HAMSTER OVARY, Strain/Indicator: AS52/6-THIOGUANINE, Metabolic Activation: NONE) “inactive; negative”; (Test System: CHINESE HAMSTER OVARY, Strain/Indicator: AS52/6-THIOGUANINE, Metabolic Activation: RAT LIVER S-9, 2-ACETYLAMINOFLUORINE) “active; positive”.

Consider `C#C[C@]1(O)C=C[C@H]2[C@@H]3CCC4=CC(=O)CC[C@@H]4[C@H]3CC[C@@]21CC`, for which, for the setting “End Point: IN VIVO MICRONUCLEUS, Test System: BONE MARROW POLYCHROMATIC ERYTHROCYTES, Species: MOUSE, Strain/Sex: NMRI/FEMALE, Route: INTRAGASTRIC”, the mutagenic call is “inactive; negative”.
